Where two headings read alike, the source gives them in different places.

Ten compounds from patent US9593113B2, “Imide and acylurea derivatives as modulators of the glucocorticoid receptor” (BRISTOL-MYERS SQUIBB COMPANY, priority 2013, dated 2017) can be followed below.

Test [1] has as its system AP-1 induced transcriptional activity. Put plainly: Cellular transrepressional assay (AP-1 luciferase reporter, PMA-activated A549 cell). The settings on record: A549 cell, 10 ng/ml PMA, 7 hours; for EC50: read-out: AP-1 (EC50, nM) (measured in cellular transrepression assay). The class given is cell-based. The method, then: To measure the ability of test molecules to inhibit AP-1 induced transcriptional activity we utilized an A549 cell which was stably transfected with a plasmid containing 7×AP-1 DNA binding sites (pAP-1-Luc plasmid, Stratagene Co., La Jolla, Calif.) followed by the gene for luciferase. Cells were activated with 10 ng/ml of phorbol myristic acid (PMA) plus or minus test molecules for 7 hours. After 7 hours a luciferase reagent was added to measure luciferase enzymatic activity in the cell. After a 10 minute incubation of luciferase reagent with cells, luminescence was measured in a TOPCOUNT® luminescence counter. Repression of AP-1 activity was calculated as the percentage decrease in the signal induced by PMA alone. Test molecules were analyzed in the concentration range from 0.1 nM to 40 μM. EC50s were determined by using standard curve fitting methods such as Excel fit (Microsoft Co.). An EC50 is the test molecule concentration at which there is a 50% repression of the maximal inhibition of transcription, i.e., a 50% reduction of AP-1 activity.

The target in test [2] is human full-length glucocorticoid receptor (Homo sapiens (Human), UniProt P04150). The experiment in a line: Glucocorticoid Receptor Binding Assay (II), fluorescence polarization competitor kit. The method, then: In order to measure the binding of compounds on the glucocorticoid receptor a commercially available kit was used (Glucocorticoid receptor competitor assay kit, PanVera Co., Madison, Wis., P2816). Briefly, a cell lysate containing recombinantly expressed human full-length glucocorticoid receptor was mixed with a fluorescently labeled glucocorticoid (1 nM Fluormone GS1) in the presence or absence of test compound. After one hour at room temperature, the fluorescence polarization (FP) of the samples were measured.
(In general: Polarisation of emitted light reports the rotation of a fluorescent probe.)

Where [3] appears, read: read-out: GR (Ki, nM) (measured in GR binding Assay II).

human full-length glucocorticoid receptor, sequence (P04150 whole entry): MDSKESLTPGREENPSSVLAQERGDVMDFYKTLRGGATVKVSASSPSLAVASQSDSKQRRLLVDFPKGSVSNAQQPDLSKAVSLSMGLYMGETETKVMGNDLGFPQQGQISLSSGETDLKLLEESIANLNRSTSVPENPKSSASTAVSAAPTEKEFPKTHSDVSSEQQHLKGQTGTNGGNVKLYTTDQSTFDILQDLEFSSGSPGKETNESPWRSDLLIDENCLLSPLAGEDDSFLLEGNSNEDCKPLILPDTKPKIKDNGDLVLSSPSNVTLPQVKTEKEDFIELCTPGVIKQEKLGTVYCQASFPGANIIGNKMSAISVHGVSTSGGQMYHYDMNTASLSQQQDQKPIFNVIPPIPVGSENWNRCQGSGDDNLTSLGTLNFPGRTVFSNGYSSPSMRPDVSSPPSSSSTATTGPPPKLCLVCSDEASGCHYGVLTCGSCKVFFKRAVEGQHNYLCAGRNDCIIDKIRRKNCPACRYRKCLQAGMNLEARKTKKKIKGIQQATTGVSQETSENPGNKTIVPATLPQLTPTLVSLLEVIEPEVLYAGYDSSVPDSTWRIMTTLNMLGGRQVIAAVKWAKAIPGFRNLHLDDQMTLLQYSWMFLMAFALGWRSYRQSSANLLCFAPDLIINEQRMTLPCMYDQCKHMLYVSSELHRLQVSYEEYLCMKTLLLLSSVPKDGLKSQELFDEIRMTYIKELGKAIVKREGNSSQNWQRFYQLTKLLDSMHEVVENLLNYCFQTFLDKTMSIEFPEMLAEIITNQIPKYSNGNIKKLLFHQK

As to `Cc1nnn(-c2ccc(-c3ccc4c(n3)Oc3ccccc3[C@@H]4C(C)(C)C(=O)NC(N)=O)cc2)n1` [Example 67], in test [1], the “AP-1 Max % inhibition (measured in cellular transrepression assay)” value (“AP-1 Max % inhibition” for short) amounted to 53.28% and the EC50 (usually the concentration giving half of the maximal effect) was found to be 4.98 nM. In addition, in test [2] (setting [3]), the Ki (as a rule, the dissociation constant of the complex between target and ligand, obtained from inhibition or displacement) was determined as 1.51 nM.
As for `CC(C)Oc1ccc(-c2ccc3c(n2)Oc2c(F)cccc2[C@@H]3C(C)(C)C(=O)NC(N)=O)cn1` [Example 68], the “AP-1 Max % inhibition” value in test [1] was 61.39%. Further, the EC50 in test [1] (Homo sapiens) is 8.57 nM. Further, the Ki in test [2] was found to be 0.63 nM.
Consider `CC(C)(O)c1ccc(-c2ccc3c(n2)Oc2ccccc2[C@@H]3C(C)(C)C(=O)NC(N)=O)cc1` [Example 70], for which the “AP-1 Max % inhibition” value in test [1] was 79.50%. Besides, the EC50 in test [1] (Homo sapiens) was 8.94 nM. Moreover, the Ki in test [2] (setting [3]) came to 1.19 nM.
For `CN1CCN(c2ncc(-c3ccc4c(n3)Oc3c(F)cccc3[C@@H]4C(C)(C)C(=O)NC(N)=O)cn2)CC1` [Example 71] the same measures were 39.16%, 93.6 nM and 25.9 nM.
For `CC(C)(C(=O)NC(N)=O)[C@H]1c2ccccc2Oc2nc(-c3ccncc3)ccc21` [Example 72] the same measures were 37.36%, 36 nM and 4.71 nM.
For `CC(C)(C(=O)NC(N)=O)[C@@H]1c2ccc(-c3ccncc3)nc2Oc2c(F)cccc21` [Example 73] the same measures were 55.78%, 20.1 nM and 1.72 nM.
In the case of `CC(C)(C(=O)NC(N)=O)C1c2ccccc2Oc2ccccc21` [Example 75], the “AP-1 Max % inhibition” value in test [1] is 10.32%. Further, in test [1] (Homo sapiens), the EC50 was 5000 nM. Also, the inhibitory constant (Ki) in test [2] (setting [3]) is 32 nM.
On to `CC(C)(C(=O)NC(N)=O)[C@H]1c2ccccc2Oc2nc(-c3cc[n+]([O-])cc3)ccc21` [Example 76], for which, in test [1], the “AP-1 Max % inhibition” value was 23.09% and the EC50 is 327 nM. Besides, the Ki in test [2] (setting [3]) was determined as 119 nM.
For the compound `CC(C)(C(=O)NC(N)=O)[C@@H]1c2ccc(-c3ccc(C(=O)N4CCCCC4)cc3)nc2Oc2c(F)cccc21` [Example 83], the “AP-1 Max % inhibition” value in test [1] turned out to be 86.42%. Further, in test [1] (Homo sapiens), the EC50 was 5.89 nM. Besides, the inhibitory constant (Ki) in test [2] (setting [3]) is 1.11 nM.
For `CC(C)(C(=O)NC(N)=O)[C@@H]1c2ccc(-c3ccc(C(=O)N4CC[C@@H](F)C4)cc3)nc2Oc2c(F)cccc21` [Example 85] the same measures were 76.00%, 0.8 nM and 1.2 nM.
